We go through 2 compounds from ChEMBL document CHEMBL1136839, “3,4-Disubstituted isothiazoles: novel potent inhibitors of VEGF receptors 1 and 2” (Bioorg Med Chem Lett, 2009).

Bounds are passed on as bounds.

A short description of series [1]: Inhibition of Bcr-Abl T315 mutant at 10 uM by HTRF assay.
The target of series [2] is Receptor tyrosine-protein kinase erbB-2 (Homo sapiens) (UniProt P04626). The experiment in a line: Inhibition of ErbB2 at 10 uM by HTRF assay. (Time-resolved FRET reads energy transfer from a long-lived donor to a nearby acceptor.)
Series [3] deals with T1, Vascular endothelial growth factor receptor 2 (Homo sapiens, UniProt P35968). The experiment in a line: Inhibition of VEGFR2 at IC50 concentration by ATP based competition assay.
T1 sequence (P35968 whole entry): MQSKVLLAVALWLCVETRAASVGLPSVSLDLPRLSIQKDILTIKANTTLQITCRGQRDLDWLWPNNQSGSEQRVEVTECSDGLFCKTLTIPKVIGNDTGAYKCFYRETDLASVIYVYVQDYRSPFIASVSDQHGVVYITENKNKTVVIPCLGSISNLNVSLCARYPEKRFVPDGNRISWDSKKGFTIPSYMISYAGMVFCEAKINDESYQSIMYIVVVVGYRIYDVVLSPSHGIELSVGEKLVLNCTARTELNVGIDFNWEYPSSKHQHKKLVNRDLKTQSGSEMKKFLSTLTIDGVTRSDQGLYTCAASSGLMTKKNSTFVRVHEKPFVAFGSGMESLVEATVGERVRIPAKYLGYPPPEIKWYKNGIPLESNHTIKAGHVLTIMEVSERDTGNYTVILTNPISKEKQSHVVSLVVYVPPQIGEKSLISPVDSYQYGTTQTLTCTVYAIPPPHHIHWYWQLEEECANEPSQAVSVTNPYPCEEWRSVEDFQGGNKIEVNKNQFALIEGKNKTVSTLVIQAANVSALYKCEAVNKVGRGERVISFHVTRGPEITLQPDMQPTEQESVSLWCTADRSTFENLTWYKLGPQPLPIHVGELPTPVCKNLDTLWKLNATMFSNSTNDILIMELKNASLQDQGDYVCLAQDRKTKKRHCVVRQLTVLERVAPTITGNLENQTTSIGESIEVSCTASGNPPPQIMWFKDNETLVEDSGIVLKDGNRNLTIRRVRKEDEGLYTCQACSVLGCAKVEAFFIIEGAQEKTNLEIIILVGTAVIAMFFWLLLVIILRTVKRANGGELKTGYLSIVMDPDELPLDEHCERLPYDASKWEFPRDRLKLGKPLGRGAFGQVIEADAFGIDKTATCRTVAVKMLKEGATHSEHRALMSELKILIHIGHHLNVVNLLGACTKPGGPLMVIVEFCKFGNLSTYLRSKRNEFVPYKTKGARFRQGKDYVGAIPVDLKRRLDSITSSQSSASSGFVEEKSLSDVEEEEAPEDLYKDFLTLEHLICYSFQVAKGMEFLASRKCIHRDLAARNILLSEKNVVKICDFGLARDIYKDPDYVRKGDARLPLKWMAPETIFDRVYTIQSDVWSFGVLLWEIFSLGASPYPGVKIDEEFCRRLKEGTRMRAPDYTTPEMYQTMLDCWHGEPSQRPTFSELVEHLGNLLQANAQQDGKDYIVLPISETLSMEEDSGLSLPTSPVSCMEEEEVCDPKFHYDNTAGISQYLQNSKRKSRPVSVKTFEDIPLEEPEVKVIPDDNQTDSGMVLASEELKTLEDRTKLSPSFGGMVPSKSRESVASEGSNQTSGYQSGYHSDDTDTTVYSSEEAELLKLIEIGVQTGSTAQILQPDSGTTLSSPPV
A short description of series [4]: Inhibition of PKA at 10 uM by HTRF assay.
The target in series [5] is Serine/threonine-protein kinase PLK1 (Homo sapiens) (UniProt P53350). The experiment in a line: Inhibition of Plk1 at 10 uM by HTRF assay.
The target of series [6] is Insulin-like growth factor 1 receptor (Homo sapiens) (UniProt P08069). The experiment in a line: Inhibition of IGF1R at 10 uM by HTRF assay.
Series [7] deals with Macrophage-stimulating protein receptor (Homo sapiens) (UniProt Q04912). The experiment in a line: Inhibition of Ron at 10 uM by HTRF assay.
Series [8] has as its target T1, Vascular endothelial growth factor receptor 2. Description: Inhibition of VEGFR2 at IC90 concentration by ATP based competition assay.
In series [9] the target is Epidermal growth factor receptor (Homo sapiens) (UniProt P00533). Description: Inhibition of EGFR at 10 uM by HTRF assay.
Epidermal growth factor receptor (Homo sapiens), sequence (P00533 whole entry): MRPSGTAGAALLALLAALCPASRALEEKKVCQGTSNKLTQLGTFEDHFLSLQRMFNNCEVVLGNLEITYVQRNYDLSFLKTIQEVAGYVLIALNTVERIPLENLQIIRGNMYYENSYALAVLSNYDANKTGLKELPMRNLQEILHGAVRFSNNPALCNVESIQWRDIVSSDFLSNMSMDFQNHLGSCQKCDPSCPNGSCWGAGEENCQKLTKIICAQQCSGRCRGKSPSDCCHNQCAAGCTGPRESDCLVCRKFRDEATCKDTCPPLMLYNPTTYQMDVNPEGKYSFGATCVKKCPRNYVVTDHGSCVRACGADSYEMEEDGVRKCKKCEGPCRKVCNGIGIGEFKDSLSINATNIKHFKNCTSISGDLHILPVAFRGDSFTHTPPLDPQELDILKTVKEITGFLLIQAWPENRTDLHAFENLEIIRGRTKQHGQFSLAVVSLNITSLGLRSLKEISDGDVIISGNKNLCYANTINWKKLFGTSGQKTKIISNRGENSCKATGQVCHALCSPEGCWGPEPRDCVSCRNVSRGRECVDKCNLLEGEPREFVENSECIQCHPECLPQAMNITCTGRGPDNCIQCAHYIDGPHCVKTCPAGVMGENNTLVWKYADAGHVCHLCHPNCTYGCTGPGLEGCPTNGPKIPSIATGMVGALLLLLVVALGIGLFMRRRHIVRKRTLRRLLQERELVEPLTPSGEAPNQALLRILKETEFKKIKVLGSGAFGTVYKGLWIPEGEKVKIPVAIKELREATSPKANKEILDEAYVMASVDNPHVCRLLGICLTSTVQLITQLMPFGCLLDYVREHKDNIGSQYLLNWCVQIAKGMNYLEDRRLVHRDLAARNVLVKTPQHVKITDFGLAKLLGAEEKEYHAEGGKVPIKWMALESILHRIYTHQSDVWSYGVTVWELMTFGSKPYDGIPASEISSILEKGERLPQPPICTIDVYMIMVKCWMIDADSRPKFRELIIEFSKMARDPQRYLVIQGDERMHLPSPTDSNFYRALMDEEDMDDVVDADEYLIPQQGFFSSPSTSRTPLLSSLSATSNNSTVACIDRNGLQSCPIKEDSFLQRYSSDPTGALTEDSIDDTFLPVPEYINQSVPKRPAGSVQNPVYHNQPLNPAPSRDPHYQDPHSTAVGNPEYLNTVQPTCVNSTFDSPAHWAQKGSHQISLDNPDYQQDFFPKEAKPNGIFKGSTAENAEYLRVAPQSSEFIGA
Series [10] addresses Fibroblast growth factor receptor 1 (Homo sapiens) (UniProt P11362). The experiment in a line: Inhibition of FGFR1 at 10 uM by HTRF assay.
Series [11] deals with Glycogen synthase kinase-3 beta (Homo sapiens) (UniProt P49841). The experiment in a line: Inhibition of GSK3-beta at 10 uM by HTRF assay.
For series [12], the target named is Cyclin-dependent kinase 2 (Homo sapiens) (UniProt P24941). The experiment in a line: Inhibition of CDK2 at 10 uM by HTRF assay.
Series [13] has as its target Vascular endothelial growth factor receptor 1 (Homo sapiens, UniProt P17948). Description: Inhibition of VEGFR1 assessed as blockade of pGAT-biotin phosphorylation in presence of 2 uM ATP by HTRF assay.
The nature of series [14]: Intrinsic permeability across human Caco-2 cells. A general note: Passage across Caco-2 layers is used to estimate intestinal permeability.
The target in series [15] is T2, Aurora kinase A (Homo sapiens) (UniProt O14965).
T2 sequence (whole entry): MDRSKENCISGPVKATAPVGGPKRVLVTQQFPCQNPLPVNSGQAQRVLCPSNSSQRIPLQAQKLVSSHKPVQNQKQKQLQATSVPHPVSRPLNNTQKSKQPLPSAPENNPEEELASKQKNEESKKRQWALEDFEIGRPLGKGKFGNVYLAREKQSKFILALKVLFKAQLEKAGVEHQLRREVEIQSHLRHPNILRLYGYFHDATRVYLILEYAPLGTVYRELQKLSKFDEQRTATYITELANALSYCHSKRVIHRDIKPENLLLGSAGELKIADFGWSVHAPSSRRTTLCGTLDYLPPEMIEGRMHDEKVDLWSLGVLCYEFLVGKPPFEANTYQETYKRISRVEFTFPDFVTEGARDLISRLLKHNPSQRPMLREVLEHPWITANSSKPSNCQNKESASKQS
The experiment in a line: Inhibition of Aurora A at 10 uM by HTRF assay.

Series [16] addresses T1, Vascular endothelial growth factor receptor 2. The experiment in a line: Inhibition of VEGFR2 assessed as blockade of pGAT-biotin phosphorylation in presence of 2 uM ATP by HTRF assay.
Series [17] addresses Receptor-type tyrosine-protein kinase FLT3 (Homo sapiens) (UniProt P36888). Description: Inhibition of Flt3 at 10 uM by HTRF assay.
The target in series [18] is Insulin receptor (Homo sapiens) (UniProt P06213). Description: Inhibition of InR at 10 uM by HTRF assay.
Insulin receptor (Homo sapiens), sequence (P06213 28-758 limits assumed): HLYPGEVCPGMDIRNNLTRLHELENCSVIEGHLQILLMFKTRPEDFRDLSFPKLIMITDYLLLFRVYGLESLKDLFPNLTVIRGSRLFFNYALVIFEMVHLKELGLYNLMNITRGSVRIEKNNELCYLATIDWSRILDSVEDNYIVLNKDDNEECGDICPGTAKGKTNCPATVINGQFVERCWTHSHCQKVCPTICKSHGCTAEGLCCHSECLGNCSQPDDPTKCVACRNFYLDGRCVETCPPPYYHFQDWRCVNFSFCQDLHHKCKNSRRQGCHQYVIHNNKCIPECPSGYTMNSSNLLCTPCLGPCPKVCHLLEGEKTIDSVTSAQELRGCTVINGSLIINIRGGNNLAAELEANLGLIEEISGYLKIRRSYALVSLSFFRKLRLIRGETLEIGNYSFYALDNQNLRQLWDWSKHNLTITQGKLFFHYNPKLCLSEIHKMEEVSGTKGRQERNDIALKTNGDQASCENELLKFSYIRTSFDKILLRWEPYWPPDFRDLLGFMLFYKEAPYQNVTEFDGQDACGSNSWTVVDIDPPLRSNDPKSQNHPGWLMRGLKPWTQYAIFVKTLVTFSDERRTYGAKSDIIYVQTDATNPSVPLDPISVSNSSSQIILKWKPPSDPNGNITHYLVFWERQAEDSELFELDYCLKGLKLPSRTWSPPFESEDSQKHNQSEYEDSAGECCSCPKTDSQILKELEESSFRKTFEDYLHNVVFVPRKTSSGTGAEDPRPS
Insulin receptor (Homo sapiens), sequence (P06213 763-1382 limits assumed): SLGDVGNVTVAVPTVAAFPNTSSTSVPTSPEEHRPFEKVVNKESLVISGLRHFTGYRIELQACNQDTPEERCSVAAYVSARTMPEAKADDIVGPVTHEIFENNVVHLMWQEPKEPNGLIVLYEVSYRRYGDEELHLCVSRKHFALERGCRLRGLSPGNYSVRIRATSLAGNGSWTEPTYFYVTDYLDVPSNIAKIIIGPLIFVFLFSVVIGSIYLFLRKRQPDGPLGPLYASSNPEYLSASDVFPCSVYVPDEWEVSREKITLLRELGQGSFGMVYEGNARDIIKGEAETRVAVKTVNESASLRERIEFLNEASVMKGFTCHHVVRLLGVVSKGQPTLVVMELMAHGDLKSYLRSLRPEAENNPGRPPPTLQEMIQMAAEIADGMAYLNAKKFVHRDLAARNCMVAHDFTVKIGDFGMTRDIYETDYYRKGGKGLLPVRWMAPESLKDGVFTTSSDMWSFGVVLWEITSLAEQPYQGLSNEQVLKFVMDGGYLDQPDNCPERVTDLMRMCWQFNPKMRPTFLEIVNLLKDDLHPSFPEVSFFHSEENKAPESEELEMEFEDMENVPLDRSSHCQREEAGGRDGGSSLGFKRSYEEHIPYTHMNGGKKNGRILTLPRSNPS
Series [19] has as its target Cyclin-dependent kinase 1 (Homo sapiens) (UniProt P06493). Description: Inhibition of CDK1 at 10 uM by HTRF assay.
In series [20] the target is Aurora kinase B (Homo sapiens) (UniProt Q96GD4). Description: Inhibition of Aurora B at 10 uM by HTRF assay.
For series [21], the target named is Proto-oncogene tyrosine-protein kinase Src (Homo sapiens) (UniProt P12931). Description: Inhibition of Src at 10 uM by HTRF assay.
Series [22] addresses T1, Vascular endothelial growth factor receptor 2. The experiment in a line: Inhibition of VEGFR2 expressed in HEK293 cells assessed as inhibition of receptor phosphorylation by ELISA. It counts as cell-based. (ELISA stands for enzyme-linked immunosorbent assay.)
The target of series [23] is Bcr/Abl fusion protein (Homo sapiens) (UniProt P00519+P11274). Description: Inhibition of bcr-Abl at 10 uM by HTRF assay. The class given is protein assay.
Series [24] addresses Hepatocyte growth factor receptor (Homo sapiens) (UniProt P08581). Description: Inhibition of cMET at 10 uM by HTRF assay.

Receptor-type tyrosine-protein kinase FLT3 (Homo sapiens), sequence (P36888 whole entry): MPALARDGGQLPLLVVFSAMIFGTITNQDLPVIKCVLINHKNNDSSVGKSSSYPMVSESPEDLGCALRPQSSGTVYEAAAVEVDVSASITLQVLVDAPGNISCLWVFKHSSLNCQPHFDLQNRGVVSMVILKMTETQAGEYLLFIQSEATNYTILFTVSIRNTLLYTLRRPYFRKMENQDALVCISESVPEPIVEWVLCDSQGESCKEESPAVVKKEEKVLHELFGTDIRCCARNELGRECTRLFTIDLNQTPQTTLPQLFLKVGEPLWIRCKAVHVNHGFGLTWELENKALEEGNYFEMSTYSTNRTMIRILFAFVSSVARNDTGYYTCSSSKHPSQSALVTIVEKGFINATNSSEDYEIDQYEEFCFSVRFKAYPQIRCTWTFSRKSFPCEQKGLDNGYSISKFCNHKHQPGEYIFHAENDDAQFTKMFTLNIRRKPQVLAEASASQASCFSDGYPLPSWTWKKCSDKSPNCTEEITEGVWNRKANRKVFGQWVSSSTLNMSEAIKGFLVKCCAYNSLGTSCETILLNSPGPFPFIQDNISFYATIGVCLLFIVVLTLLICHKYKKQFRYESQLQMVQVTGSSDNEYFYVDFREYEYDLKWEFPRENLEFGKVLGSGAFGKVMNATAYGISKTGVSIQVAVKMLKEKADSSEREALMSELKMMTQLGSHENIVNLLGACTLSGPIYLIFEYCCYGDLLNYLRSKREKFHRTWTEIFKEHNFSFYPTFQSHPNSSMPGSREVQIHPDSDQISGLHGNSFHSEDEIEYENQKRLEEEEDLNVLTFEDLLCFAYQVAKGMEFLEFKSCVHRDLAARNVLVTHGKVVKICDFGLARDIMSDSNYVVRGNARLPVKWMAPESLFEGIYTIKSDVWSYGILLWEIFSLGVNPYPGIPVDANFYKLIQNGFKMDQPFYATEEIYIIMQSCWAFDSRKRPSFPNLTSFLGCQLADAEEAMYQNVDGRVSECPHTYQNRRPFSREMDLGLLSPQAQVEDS

For orientation: inhibition means the change of the read-out against control, counted positive when it falls. A high value points to strong suppression. Broadly, the Ki is a measure of affinity in units of concentration, obtained from inhibition or displacement. The low end stands for a stronger hold on the target, the high end for a looser hold on the target. The IC50 is the point on the concentration scale where inhibition reaches its midpoint. The term Papp denotes the rate of passage across a membrane or cell layer, normalised by area and donor concentration. Low values mean poor permeation, high ones ready permeation. Consider `O=C(Nc1cccc(C(F)(F)F)c1)c1nscc1NCc1ccncc1`, for which the inhibition in series [1], in series [2], in series [4], in series [5], in [6] and in series [7] was < 30% each time. Further, the inhibition in series [9], in series [10], in [11], in series [12], in [15] and in series [17] was < 30% throughout. Also, the inhibition in [18], in series [19], in series [20], in [21], in [23] and in series [24] was < 30% throughout. Also, the Ki in series [3] is 160 nM; in series [8], 130 nM. In addition, the results for the half-maximal inhibitory concentration (IC50) in series [13], in series [16] and in [22] were 170 nM, 41 nM and 54 nM, respectively. This compound showed a Papp in series [14] of 6.98 ×10⁻⁶ cm/s.
Take `O=C(Nc1ccc(Br)cc1)c1nscc1NCc1ccncc1`: the inhibition in series [1], in series [2], in series [4], in series [5], in series [6] and in [7] was < 30% throughout. Moreover, the inhibition in [9], in series [10], in [11], in series [12], in series [15] and in series [17] was < 30% in each case. In addition, the inhibition in [18], in [19], in series [20], in series [21], in series [23] and in series [24] was < 30% each time. Also, the Ki in series [3] was found to be 90 nM; in series [8] it was 70 nM. Moreover, the IC50 in series [13] was 260 nM; in series [16] it was 230 nM; in [22] it was 1040 nM.
